The assay deals with cotton aphid (Aphis gossypii). Kind of assay: Foliar spray test on cotton seedlings infested with cotton aphid. Type of assay: in vivo. The settings on record: 72 h, read-out: Percent Mortality. As for the experimental part:
Insecticidal testing was conducted on specific compounds of the present invention. Specifically, the compounds referenced below were evaluated on 7-10 day old cotton seedlings infested with cotton aphid (Aphis gossypii). At least 12 hours prior to the test, leaf cuttings containing about 50 adult aphids were placed on leaves of each of duplicate cotton seedlings for each rate of application of compound of formula (I). Solutions of the compounds of formula (I) were prepared for testing by serial dilution of a standard solution comprised of an appropriate amount of the test material in a water/acetone solvent, which contained a small amount of a surfactant. Rates of application of compounds of formula (I) may range from about 1000 parts per million (ppm), or more, to about 3 ppm, or less, in a rate series of, for example, 1000 ppm, 300 ppm, 100 ppm, 30 ppm, 10 ppm, and 3 ppm. The solutions containing each rate of application of compounds of formula (I) were then sprayed to run-off to both the upper and lower portions of the leaves of the aphid-infested cotton seedlings. Each test of foliar-applied compounds of formula (I) included appropriate standard insecticides of known insecticidal activity and blank treatments to aid in assessing the insecticidal activity of the compounds of formula (I). Upon completion of the spraying with compounds of formula (I), the cotton seedlings were maintained in a growth chamber for a period of 72 hours. After this time, the seedlings were examined for dead insects. Insects were classified as dead if they were off-color or brown and desiccated. Upon completion of the evaluation of the test, the percent mortality of the cotton aphid for each rate of application of compounds of formula (I) was determined by comparison of the total number of dead insects to the total number of insects in the test.
Consider `CCCCOc1ccc(CCOn2c(C)nc(C)c2C)cc1Cl` [Compound 9, 1-[2-(3-chloro-4-n-butoxyphenyl)ethoxy]-2,4,5-trimethylimidazole], for which the mortality at 1000 ppm stood at 100%. Same read-out and setting: next, `Cc1nc2ccccc2n1OCCc1ccc(C(C)(C)C)c(Cl)c1` [Compound 135, 1-[2-[3-chloro-4-(1,1-dimethylethyl)phenyl]ethoxy]-2-methylbenzimidazole]: 86%.

As to `CCCCOc1ccc(CCOn2c(C)nc3ccccc32)cc1Cl` [Compound 163, 1-[2-(3-chloro-4-n-butoxyphenyl)ethoxy]-2-methylbenzimidazole], the mortality at 1000 ppm was found to be 88%. Same read-out and setting: next, `CCCCOc1ccc(CCOn2c(C)nc3c2CCCC3)cc1Cl` [Compound 244, 1-[2-(3-chloro-4-n-butoxyphenyl)ethoxy]-2-methyl-4,5,6,7-tetrahydrobenzimidazole]: 98%. Same read-out and setting: next, `CCCCOc1ccc(CCOn2c(C)nc3c(F)cccc32)cc1Cl` [Compound 246, 1-[2-(3-chloro-4-n-butoxyphenyl)ethoxy]-4-fluoro-2-methylbenzimidazole]: 100%; `CCCCOc1ccc(CCOn2c(C)nc3c(C)cccc32)cc1Cl` [Compound 266, 1-[2-(3-chloro-4-n-butoxyphenyl)ethoxy]-2,4-dimethylbenzimidazole]: 100%.

`CCCCOc1ccc(CCOn2nnc3ccccc32)cc1Cl` [Compound 285, 1-[2-(3-chloro-4-n-butoxyphenyl)ethoxy]-1H-benzotriazole]: the mortality at 1000 ppm was 31%. As to `CCCOC(=O)c1ccc(CCNn2c(C)nc3ccccc32)cc1Cl` [Compound 302, propyl 2-chloro-4-[2-(2-methylbenzimidazol-1-ylamino)ethyl]benzoate], the mortality at 100 ppm stood at 84%. Regarding `CCCCOc1ccc(C(C)(C)CNn2c(C)nc3ccccc32)cc1` [Compound 305, 1-[[2-methyl-2-(4-n-butoxyphenyl)propyl]amino]-2-methylbenzimidazole], the mortality at 1000 ppm was 96%.

As to `CCCCOc1ccc(CCNn2c(C)nc3ccccc32)cc1Cl` [Compound 314, 1-[2-(3-chloro-4-n-butoxyphenyl)ethylamino]-2-methylbenzimidazole], the mortality at 1000 ppm stood at 100%. `CCCCOc1c(C)cc(CCNn2c(C)nc3ccccc32)cc1C` [Compound 320, 1-[2-(3,5-dimethyl-4-n-butoxyphenyl)ethylamino]-2-methylbenzimidazole]: the mortality at 100 ppm is 99%.

Consider `CCCCOc1ccc(CCNn2c(C)nc3c(F)cccc32)cc1Cl` [Compound 323, 1-[2-(3-chloro-4-n-butoxyphenyl)ethylamino]-4-fluoro-2-methylbenzimidazole], for which the mortality at 100 ppm stood at 96%. On the same count and under the same terms, next, `CCCCOc1c(C)cc(CCNn2c(C)nc3cc(F)ccc32)cc1C` [Compound 329, 1-[2-(3,5-dimethyl-4-n-butoxyphenyl)ethylamino]-5-fluoro-2-methylbenzimidazole]: 93%; `CCCC(CCC)Oc1ccc(CCOn2c(C)nc3c(C)cccc32)cc1` [Compound 413, 1-[2-[4-(1-propylbutoxy)phenyl]ethoxy]-2,4-dimethylbenzimidazole]: 80%.

For `CCCCOc1ccc(CCNn2c(=O)n(C)c3ccccc32)cc1Cl` [Compound 417, 1-[2-(3-chloro-4-n-butoxyphenyl)ethylamino]-1,3-dihydro-3-methyl-2H-benzimidazol-2-one], the mortality at 100 ppm turned out to be 3%. The same measure, in the same setting: next, `CCON=Cc1c(F)cc(CCOn2c(C)nc3ccccc32)cc1F` [Compound 1323, 1-[2-(3,5-difluoro-4-ethoxyiminomethylphenyl)ethoxy]-2-methylbenzimidazole]: 97%.

The term mortality denotes the percentage killed.

The record behind these values is patent US20070269664A1, “Gas Barrier Laminated Film and Process for Producing the Same” (Sai Nippon Printing Co., Ltd., priority 2004, published 2007).
